Converted amounts (≈) assume the structure as drawn.
What was measured:
[1] = test system: Haemonchus contortus larvae; test: In vitro Haemonchus contortus larval motility (L1 to L3 development) assay, MIC90; format: cell-based; settings: 96 h, L1 larvae in nutrient medium, 27° C., 97% relative humidity, 4 days, motility of L3 vs DMSO control, read-out: MIC90 (minimum concentration inhibiting motility of the larvae by 90%)
Description: The following procedure was used for the study: Twenty L1 Haemonchus contortus larvae were added to wells of a microtitre plate containing a nutrient medium and the test compound in DMSO. The microtitre plate was held at 27° C. and 97% Relative humidity for a 4 day period. Under these conditions the added larvae develop to the L3 stage. The efficacy of a compound is determined based on the motility of the resulting L3 larvae and compared to the motility of control wells treated with DMSO only.

[2] = test system: Cooperia oncophora; test: In vivo efficacy in experimentally infected calves, worm count reduction; settings: oral; for efficacy against C. oncophora males in words: Compound I compared with eprinomectin (Group 3) or ivermectin (Group 4); for % Reduction in Worm Counts, C. oncophora Males: single treatment Day 0, necropsy Day 16, vs untreated control, Compound I 2 mg/kg, eprinomectin 0.075 mg/kg, ivermectin 0.150 mg/kg
Source text: (§1) The efficacy of Compound I against parasitic gastrointestinal nematodes in cattle when administered orally as an oral solution was studied. Thirty male castrate dairy calves of approximately 8 to 12 weeks of age were experimentally infected with parasitic nematodes. The calves were inoculated with Haemonchus […] Ostertagia ostertagi on Day -33 and with Cooperia punctata and Cooperia oncophora on Day -21. Calves were allocated to one of the six treatment groups. Calves in Treatment Group 1 were not treated. Calves in Treatment Groups 2-6 were treated on Day 0 as outlined in the Table 2 below with a formulation containing 5% (w/v) of Compound I in a carrier comprising 50% (v/v) PEG 400 with the remainder (QS to 130 mL0 PEG 300. [table] All calves were euthanized on Day 16 and the abomasum and small intestine were recovered from each calf and processed for parasite recovery. All five calves in the untreated control group harbored adequate infections of […]. ostertagi, C. punctate and C. oncophora. The efficacy of each treatment group relative to the control group is shown in Table 3 below: […]

[3] = test system: Cooperia punctata; test: as above; settings: oral, single treatment Day 0, necropsy Day 16, vs untreated control, Compound I 2 mg/kg, eprinomectin 0.075 mg/kg, ivermectin 0.150 mg/kg
Source text: as §1

[4] = test system: Cooperia spp.; test: as above; settings: oral; for % Reduction in Worm Counts, Cooperia spp. Females: single treatment Day 0, necropsy Day 16, vs untreated control, Compound I 2 mg/kg, eprinomectin 0.075 mg/kg, ivermectin 0.150 mg/kg
Source text: as §1

[5] = test system: Haemonchus placei; test: as above; settings: oral, single treatment Day 0, necropsy Day 16, vs untreated control, Compound I 2 mg/kg, eprinomectin 0.075 mg/kg, ivermectin 0.150 mg/kg
Source text: as §1

[6] = test system: Ostertagia ostertagi; test: as above; settings: oral, single treatment Day 0, necropsy Day 16, vs untreated control, Compound I 2 mg/kg, eprinomectin 0.075 mg/kg, ivermectin 0.150 mg/kg
Source text: as §1

| Compound | MIC90 [1] | efficacy against C. oncophora males in words [2] | % Reduction in Worm Counts, C. oncophora Males [2] | % Reduction in Worm Counts, C. punctata Males [3] | efficacy against Cooperia spp. female worms in words ([4]; Compound I compared with eprinomectin (Group 3) or ivermectin (Group 4)) | % Reduction in Worm Counts, Cooperia spp. Females [4] | % Reduction in Worm Counts, H. placei Adults [5] | % Reduction in Worm Counts, O. ostertagi Females [6] | % Reduction in Worm Counts, O. ostertagi Males [6] |
| --- | --- | --- | --- | --- | --- | --- | --- | --- | --- |
| CC(C#N)(Cn1cc2c(C(F)(F)F)cc(Cl)c(Cl)c2n1)NC(=O)c1ccc(SC(F)(F)F)cc1 (centres unmarked) [Compound II] | 1.2 ng/mL (≈ 2.22 nM) |  |  |  |  |  |  |  |  |
| CC(C#N)(Cn1cc2c(C(F)F)cc(Cl)c(Cl)c2n1)NC(=O)c1ccc(SC(F)(F)F)cc1 (centres unmarked) [Compound I] | 0.3 ng/mL (≈ 0.573 nM) | significantly more effective | 83.0% | 100.0% | significantly more effective | 90.9% | 100.0% | 96.4% | 96.3% |
| CC(C#N)(Cn1cc2ccc(Cl)cc2n1)NC(=O)c1ccc(SC(F)(F)F)cc1 (centres unmarked) [‘999 App, 2.038] | 2.4 ng/mL (≈ 5.47 nM) |  |  |  |  |  |  |  |  |
| CC(C#N)(Cn1cc2c(Cl)cc(Cl)cc2n1)NC(=O)c1ccc(SC(F)(F)F)cc1 (centres unmarked) [‘999 App, 2.041] | 2.4 ng/mL (≈ 5.07 nM) |  |  |  |  |  |  |  |  |
| CC(C#N)(Cn1cc2c(Cl)cc(Cl)c(Cl)c2n1)NC(=O)c1ccc(SC(F)(F)F)cc1 (centres unmarked) [‘999 App, 2.049] | 1.2 ng/mL (≈ 2.36 nM) |  |  |  |  |  |  |  |  |
| eprinomectin |  |  | 0% | 94.7% |  | 55.8% | 98.9% | 99.4% | 95.7% |
| ivermectin |  | not effective | 0% | 91% |  | 46% | 82% | 81% | 75% |

Source: patent US11773066B2, “Indazolylcyanoethylamino compound, compositions of same, method of making, and methods of using thereof” (BOEHRINGER INGELHEIM ANIMAL HEALTH USA INC., priority 2018, dated 2023)
